Source: patent US20250243488A1, “METHODS OF MODULATING PROGRANULIN EXPRESSION USING ANTISENSE OLIGONUCLEOTIDES TARGETING REGULATORY RNAS” (Camp4 Therapeutics Corporation, priority 2022, published 2025)
Oligonucleotides are written 5' to 3', each unit as a sugar letter and its base; * is a phosphorothioate linkage, no mark a phosphodiester; rarer units and linkages stand in square brackets, end groups in braces. Plain capitals give the bases only. e = 2'-O-(2-methoxyethyl) (MOE); l = locked nucleic acid (LNA); [5mC] = 5-methylcytosine; d = 2'-deoxy (DNA)

Experiments:
mGrn mRNA [1] = experiment: In vivo mGrn mRNA in heterozygous Grn^tm1.1Far mice after ICV injection; design: species or system mouse
Procedure: (§1) Grn^tm1.1Far (B6.129S4(FVB)-Grn^tm1.1Far/Mmjax; The Jackson Laboratory, Cat. No. MMRRC Strain #036771-JAX) heterozygous mice were used to assess the efficacy of CO-3544 and CO-10691 to upregulate mGrn in vivo. These mice have deletion of exon 2-13 of the mouse Grn gene. CO-3544 and CO-10691 target mouse Grn paRNA.
(§2) Mice were injected ICV with 5 μL of artificial CSF (aCSF; vehicle control), 300 μg of ASO CO-3544, or 200 μg of ASO CO-10691, each in aCSF, at a rate of 1 μL/min. For ASO CO-3544, mice were sacrificed 4 weeks post-dose for analyses. For CO-10691, mice were sacrificed 2 and 4 weeks post-dose for analyses. Mouse brain sections were processed, and Pgrn protein and Grn mRNA quantified, as described above.

mGrn mRNA [2] = experiment: mGrn mRNA qPCR in Neuro2a cells transfected with ASOs; format: cell-based, mouse; settings: Neuro2a
Grn mRNA = experiment: In vivo Grn mRNA in brain regions of C57/BL6 mice after ASO injection into lateral ventricle; design: species or system mouse; settings: 300 μg into right lateral ventricle, day 28, cortex, hippocampus, striatum (FIG. 16)
Procedure: ASO-mediated upregulation of progranulin in different brain regions in vivo was determined. ASO CO-3544 (300 μg) in PBS was injected into right lateral ventricle of 8-week-old C57/BL6 mice. A steric nontargeting control ASO (CO-1929), and vehicle (PBS) control were used as controls. Mice were sacrificed at day 28 post-injection. Tissue samples (cortex, hippocampus and striatum) were collected and processed for total RNA and protein extraction as described above. Mouse Grn mRNA quantification was performed using real time qPCR assay.

Pgrn protein = experiment: In vivo Pgrn protein in heterozygous Grn^tm1.1Far mice after ICV injection (ELISA); design: species or system mouse; settings: ICV 200 μg, 2 and 4 weeks (FIG. 24)
Procedure: as §1, §2

Row | Substance | increase in Grn mRNA expression as compared to aCSF (mGrn mRNA [1]; heterozygous Grn^tm1.1Far mice, ICV 300 μg, 4 weeks (FIG. 22A)) | mGrn mRNA upregulation (mGrn mRNA [2]; dose-dependent, normalized to sNTC3 (FIG. 13)) | mGRN mRNA FC (mGrn mRNA [2]; Table 14, 100 nM, 48 hours, normalized to sNTC3) | 40 nM FC (mGrn mRNA) (mGrn mRNA [2]; Table 15, 40 nM, transfection) | 80 nM FC (mGrn mRNA) (mGrn mRNA [2]; Table 15, 80 nM, transfection) | 160 nM FC (mGrn mRNA) (mGrn mRNA [2]; Table 15, 160 nM, transfection) | Grn mRNA levels increase across different brain regions (Grn mRNA) | mGrn mRNA expression as compared to aCSF (mGrn mRNA [1]; Grn^tm1.1Far mice, ICV 200 μg, 2 and 4 weeks, cortex, hippocampus, striatum, cerebellum (FIGS. 23A-D)) | murine Pgrn protein expression as compared to aCSF (Pgrn protein)
1 | CO-3544: ASO targeting the mouse Grn promoter (− strand); targets mouse Grn paRNA (antisense eG*eT*eT*e[5mC]*eT*e[5mC]*e[5mC]*e[5mC]*eT*eA*eG*e[5mC]*eT*eG*eT*eG*eT*eA*eG*eT) | up to 1.5 fold | up to 1.5 fold | 1.1 FC | 1.2 FC | 1.3 FC | 1.4 FC | greater than 1.5 fold |  | 
2 | CO-10691: ASO that targets mouse Grn paRNA (antisense eG*eT*lA*eG*lA*dG*dA*d[5mC]*dA*d[5mC]*d[5mC]*dT*d[5mC]*d[5mC]*d[5mC]*l[5mC]*eG*l[5mC]*eA*e[5mC]) |  |  |  |  |  |  |  | upregulated | upregulated
